Earlier results, collected in patent US20210298296A1, “METHOD OF PREVENTING MICROBES IN DISPOSABLE PRODUCTS” (priority 2020, published 2021).

How the values were obtained:
[1] = test system: cells activated by monocytes; details: water-soluble components of Tea Tree Oil
Staphylococcus aureus = details: in vitro
[2] = test system: influenza virus subtype H1N1
[3] = test system: S. aureus, Staphylococcus epidermidis, Propionibacterium acnes
[4] = test system: nail fungus (onychomycosis); details: 117 patients; six months, twice-daily topical 1% clotrimazole or 100% Tea Tree Oil
[5] = 104 patients, 10% w/w Tea Tree Oil cream vs 1% tolnaftate vs placebo

CC1=CCC(O)(C(C)C)CC1 (stereo not shown) [Terpinen-4-ol, 4-methyl-1-(1-methylethyl)-3-cyclohexen-1-ol]
inflammatory response [1]: suppress the inflammatory response
contribution to the antiprotozoal activity of Tea Tree Oil (Leishmania major): contributed significantly to this activity
contribution to the antiprotozoal activity of Tea Tree Oil (Trypanosoma brucei): contributed significantly to this activity
growth of human melanoma cells (human melanoma cells): impair the growth of human melanoma cells
activity against Staphylococcus aureus, Terpinen-4-ol compared with whole Tea Tree Oil (Staphylococcus aureus): equally effective
antiviral activity against influenza virus subtype H1N1 [2]: principally attributed to Terpinen-4-ol
inhibitory effect on all three organisms [3]: inhibitory

CC1=CCC2CC1C2(C)C (stereo not drawn) [alpha-pinene]
inhibitory effect on all three organisms [3]: inhibitory

CC1=CCC(C(C)(C)O)CC1 (stereo not drawn) [alpha-terpineol]
inhibitory effect on all three organisms [3]: inhibitory

O=C(OOC(=O)c1ccccc1)c1ccccc1 [benzoyl peroxide, reference compound]
number of inflamed and non-inflamed lesions (acne vulgaris (P. acnes); 124 patients, 5% Tea Tree Oil gel vs 5% benzoyl peroxide lotion): significantly reduced the number of inflamed and non-inflamed lesions

Clc1ccccc1C(c1ccccc1)(c1ccccc1)n1ccnc1 [clotrimazole]
clinical resolution of the infection [4]: clinically documented resolution of the infection
fungus in cultures [4]: decrease in fungus in cultures

Cc1cccc(N(C)C(=S)Oc2ccc3ccccc3c2)c1 [tolnaftate]
conversion to negative culture at the end of therapy (tinea pedis; [5]): showed conversion to negative culture
improvements in clinical symptoms (tinea pedis; [5]): significant improvements in clinical symptoms
cure rate for tinea pedis (tinea pedis; human, in vivo): 80%

Tea Tree Oil
adverse side effects (skin scaling, dryness, irritation) (acne vulgaris (P. acnes); human, in vivo): fewer adverse side effects
